Reference: PubChem BioAssay (NCI)
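GI50 = concentration required for 50% inhibition of growth. TGI marks complete inhibition of growth.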

Experiments:
Experiment in all cases: NCI-60 cell line screen, 384-well format
786-0 renal = tested on: 786-0 renal
A498 renal = tested on: A498 renal
A549 NSCLC = tested on: A549 NSCLC
ACHN renal = tested on: ACHN renal
BT-549 breast = tested on: BT-549 breast
CAKI-1 renal = tested on: CAKI-1 renal
CCRF-CEM leukemia = tested on: CCRF-CEM leukemia
COLO 205 colon = tested on: COLO 205 colon
DU-145 prostate = tested on: DU-145 prostate
EKVX NSCLC = tested on: EKVX NSCLC
HCC-2998 colon = tested on: HCC-2998 colon
HCT-15 colon = tested on: HCT-15 colon
HL-60(TB) leukemia = tested on: HL-60(TB) leukemia
HOP-62 NSCLC = tested on: HOP-62 NSCLC
HOP-92 NSCLC = tested on: HOP-92 NSCLC
HS 578T breast = tested on: HS 578T breast
HT29 colon = tested on: HT29 colon
IGROV1 ovarian = tested on: IGROV1 ovarian
K-562 leukemia = tested on: K-562 leukemia
KM12 colon = tested on: KM12 colon
LOX IMVI melanoma = tested on: LOX IMVI melanoma
M14 melanoma = tested on: M14 melanoma
MALME-3M melanoma = tested on: MALME-3M melanoma
MCF7 breast = tested on: MCF7 breast
MDA-MB-231 breast = tested on: MDA-MB-231 breast
MDA-MB-435 melanoma = tested on: MDA-MB-435 melanoma
MDA-MB-468 breast = tested on: MDA-MB-468 breast
MOLT-4 leukemia = tested on: MOLT-4 leukemia
NCI-H226 lung = tested on: NCI-H226 lung
NCI-H23 lung = tested on: NCI-H23 lung
NCI-H322M lung = tested on: NCI-H322M lung
NCI-H460 NSCLC = tested on: NCI-H460 NSCLC
NCI-H522 lung = tested on: NCI-H522 lung
NCI/ADR-RES ovarian = tested on: NCI/ADR-RES ovarian
OVCAR-3 ovarian = tested on: OVCAR-3 ovarian
OVCAR-4 ovarian = tested on: OVCAR-4 ovarian
OVCAR-5 ovarian = tested on: OVCAR-5 ovarian
OVCAR-8 ovarian = tested on: OVCAR-8 ovarian
PC-3 prostate = tested on: PC-3 prostate
RPMI-8226 leukemia = tested on: RPMI-8226 leukemia
RXF 393 renal = tested on: RXF 393 renal
SF-268 CNS = tested on: SF-268 CNS
SF-295 CNS = tested on: SF-295 CNS
SF-539 CNS = tested on: SF-539 CNS
SK-MEL-28 melanoma = tested on: SK-MEL-28 melanoma
SK-MEL-5 melanoma = tested on: SK-MEL-5 melanoma
SK-OV-3 ovarian = tested on: SK-OV-3 ovarian
SN12C renal = tested on: SN12C renal
SNB-19 CNS = tested on: SNB-19 CNS
SNB-75 CNS = tested on: SNB-75 CNS
SR leukemia = tested on: SR leukemia
SW-620 colon = tested on: SW-620 colon
T-47D breast = tested on: T-47D breast
TK-10 renal = tested on: TK-10 renal
U251 glioblastoma = tested on: U251 glioblastoma
UACC-257 melanoma = tested on: UACC-257 melanoma
UACC-62 melanoma = tested on: UACC-62 melanoma
UO-31 renal = tested on: UO-31 renal

SMILES: O=C(Nc1cccc(Nc2ncc(Br)c(NCCc3cnc[nH]3)n2)c1)N1CCCC1
- GI50 ([…]-0 renal): 5.36 µM
- TGI (786-0 renal): 19.5 µM
- GI50 (A498 renal): 4.58 µM
- TGI (A498 renal): 60.7 µM
- GI50 (A549 NSCLC): 6.32 µM
- TGI (A549 NSCLC): > 100 µM
- GI50 (ACHN renal): 12.8 µM
- TGI (ACHN renal): 59.5 µM
- GI50 (BT-549 breast): 1570 nM
- TGI (BT-549 breast): 5.23 µM
- GI50 (CAKI-1 renal): 3.62 µM
- TGI (CAKI-1 renal): 19.7 µM
- GI50 (CCRF-CEM leukemia): 190 nM
- TGI (CCRF-CEM leukemia): 377 nM
- GI50 (COLO 205 colon): 273 nM
- TGI (COLO 205 colon): 886 nM
- GI50 (DU-145 prostate): 5.13 µM
- TGI (DU-145 prostate): 19.3 µM
- GI50 (EKVX NSCLC): 6.65 µM
- TGI (EKVX NSCLC): 27.3 µM
- GI50 (HCC-2998 colon): 6.06 µM
- TGI (HCC-2998 colon): 19 µM
- GI50 (HCT-15 colon): 11.4 µM
- TGI (HCT-15 colon): 25.6 µM
- GI50 (HL-60(TB) leukemia): 399 nM
- TGI (HL-60(TB) leukemia): 1940 nM
- GI50 (HOP-62 NSCLC): 2780 nM
- TGI (HOP-62 NSCLC): 12.4 µM
- GI50 (HOP-92 NSCLC): 1600 nM
- TGI (HOP-92 NSCLC): 6.13 µM
- GI50 (HS 578T breast): 1440 nM
- TGI (HS 578T breast): 3.59 µM
- GI50 (HT29 colon): 4.1 µM
- TGI (HT29 colon): 18.5 µM
- GI50 (IGROV1 ovarian): 6.48 µM
- TGI (IGROV1 ovarian): 21.1 µM
- GI50 (K-562 leukemia): 2050 nM
- TGI (K-562 leukemia): 10.5 µM
- GI50 (KM12 colon): 684 nM
- TGI (KM12 colon): 10.6 µM
- GI50 (LOX IMVI melanoma): 1180 nM
- TGI (LOX IMVI melanoma): 2800 nM
- GI50 (M14 melanoma): 3.02 µM
- TGI (M14 melanoma): 12.9 µM
- GI50 (MALME-3M melanoma): 4.16 µM
- TGI (MALME-3M melanoma): 17.9 µM
- GI50 (MCF7 breast): 3.67 µM
- TGI (MCF7 breast): 19.9 µM
- GI50 (MDA-MB-231 breast): 2400 nM
- TGI (MDA-MB-231 breast): 12.7 µM
- GI50 (MDA-MB-435 melanoma): 2960 nM
- TGI (MDA-MB-435 melanoma): 16.5 µM
- GI50 (MDA-MB-468 breast): 283 nM
- TGI (MDA-MB-468 breast): 631 nM
- GI50 (MOLT-4 leukemia): 202 nM
- TGI (MOLT-4 leukemia): 403 nM
- GI50 (NCI-H226 lung): 873 nM
- TGI (NCI-H226 lung): 4.74 µM
- GI50 (NCI-H23 lung): 2310 nM
- TGI (NCI-H23 lung): 10.7 µM
- GI50 (NCI-H322M lung): 10.3 µM
- TGI (NCI-H322M lung): 22.3 µM
- GI50 (NCI-H460 NSCLC): 2960 nM
- TGI (NCI-H460 NSCLC): 8.71 µM
- GI50 (NCI-H522 lung): 1080 nM
- TGI (NCI-H522 lung): 4.86 µM
- GI50 (NCI/ADR-RES ovarian): > 100 µM
- TGI (NCI/ADR-RES ovarian): > 100 µM
- GI50 (OVCAR-3 ovarian): 2720 nM
- TGI (OVCAR-3 ovarian): 17.3 µM
- GI50 (OVCAR-4 ovarian): 1130 nM
- TGI (OVCAR-4 ovarian): 10.4 µM
- GI50 (OVCAR-5 ovarian): 4.3 µM
- TGI (OVCAR-5 ovarian): 24.9 µM
- GI50 (OVCAR-8 ovarian): 5.61 µM
- TGI (OVCAR-8 ovarian): 18.9 µM
- GI50 (PC-3 prostate): 4.38 µM
- TGI (PC-3 prostate): 18.4 µM
- GI50 (RPMI-8226 leukemia): 1450 nM
- TGI (RPMI-8226 leukemia): 2900 nM
- GI50 (RXF 393 renal): 6.04 µM
- TGI (RXF 393 renal): 20.9 µM
- GI50 (SF-268 CNS): 1920 nM
- TGI (SF-268 CNS): 10.2 µM
- GI50 (SF-295 CNS): 3.77 µM
- TGI (SF-295 CNS): 14.5 µM
- GI50 (SF-539 CNS): 955 nM
- TGI (SF-539 CNS): 4.06 µM
- GI50 (SK-MEL-28 melanoma): 5.06 µM
- TGI (SK-MEL-28 melanoma): 18.7 µM
- GI50 (SK-MEL-5 melanoma): 3.58 µM
- TGI (SK-MEL-5 melanoma): 14.6 µM
- GI50 (SK-OV-3 ovarian): 4.21 µM
- TGI (SK-OV-3 ovarian): 18.8 µM
- GI50 (SN12C renal): 1480 nM
- TGI (SN12C renal): 10.6 µM
- GI50 (SNB-19 CNS): 8.32 µM
- TGI (SNB-19 CNS): 46.8 µM
- GI50 (SNB-75 CNS): 2000 nM
- TGI (SNB-75 CNS): 8.78 µM
- GI50 (SR leukemia): 180 nM
- TGI (SR leukemia): 349 nM
- GI50 (SW-620 colon): 1600 nM
- TGI (SW-620 colon): 5.1 µM
- GI50 (T-47D breast): 4.37 µM
- TGI (T-47D breast): 17.2 µM
- GI50 (TK-10 renal): 7.86 µM
- TGI (TK-10 renal): 23.8 µM
- GI50 (U251 glioblastoma): 9.49 µM
- TGI (U251 glioblastoma): 79.1 µM
- GI50 (UACC-257 melanoma): 10.5 µM
- TGI (UACC-257 melanoma): 22.4 µM
- GI50 (UACC-62 melanoma): 1690 nM
- TGI (UACC-62 melanoma): 14.2 µM
- GI50 (UO-31 renal): 26.6 µM
- TGI (UO-31 renal): > 100 µM
